Experimental data published in ChEMBL document CHEMBL1158178, “Study on the binding interaction between carnitine optical isomer and bovine serum albumin” (Eur J Med Chem, 2008).

What was measured:
Albumin [1] = biological target: T1, Albumin (Bos taurus, UniProt P02769); experiment: Binding affinity to bovine serum albumin by fluorescence spectroscopy; type: ADME; conditions: cattle, isolated protein
Albumin [2] = biological target: T1, Albumin; experiment: Binding affinity to bovine serum albumin by fluorescence spectroscopy in presence of Fe3+; type: ADME; conditions: cattle, isolated protein

T1 sequence (P02769 whole entry): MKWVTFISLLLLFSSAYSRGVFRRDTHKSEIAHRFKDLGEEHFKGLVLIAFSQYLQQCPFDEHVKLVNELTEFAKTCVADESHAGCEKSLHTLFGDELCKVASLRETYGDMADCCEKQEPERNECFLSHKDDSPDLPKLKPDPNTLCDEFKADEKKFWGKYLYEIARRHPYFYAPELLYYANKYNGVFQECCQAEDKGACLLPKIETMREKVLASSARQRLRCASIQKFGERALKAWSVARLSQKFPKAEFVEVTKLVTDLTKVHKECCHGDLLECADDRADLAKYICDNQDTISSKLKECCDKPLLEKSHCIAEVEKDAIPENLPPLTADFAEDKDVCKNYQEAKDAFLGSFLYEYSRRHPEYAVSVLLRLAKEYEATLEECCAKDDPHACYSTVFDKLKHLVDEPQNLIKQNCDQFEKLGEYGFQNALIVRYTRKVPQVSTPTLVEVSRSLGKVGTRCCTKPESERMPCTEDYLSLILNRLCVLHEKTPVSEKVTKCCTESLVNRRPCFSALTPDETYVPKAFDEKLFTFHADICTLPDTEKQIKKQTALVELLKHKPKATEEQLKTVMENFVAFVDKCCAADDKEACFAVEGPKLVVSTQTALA

| K (Albumin [1]) [×10⁴ L/mol] | K (Albumin [2]) [×10⁴ L/mol] | Compound |
| --- | --- | --- |
| 2.15 | 3.18 | C[N+](C)(C)C[C@@H](O)CC(=O)[O-] [D-CARNITINE] |
| 2.27 | 2.97 | C[N+](C)(C)C[C@H](O)CC(=O)[O-] [LEVOCARNITINE] |
